Assay results: the NIST ThermoML archive (doi:10.1016/j.jct.2009.07.006)

Settings: Liquid, Vibrating tube method

Cc1ccccn1 [2-methylpyridine]
mass density [kg/m3]
Settings | 298.15 K | 308.15 K | 318.15 K | 328.15 K
2130 kPa | 941.2 | 932.1 | 922.8 | 913.5
4150 kPa | 942.5 | 933.5 | 924.3 | 915.1
6180 kPa | 943.9 | 935 | 925.8 | 916.7
8210 kPa | 945.3 | 936.4 | 927.3 | 918.3
10230 kPa | 946.6 | 937.8 | 928.8 | 919.8
11250 kPa | 947.2 | 938.5 | 929.5 | 920.5
12260 kPa | 947.9 | 939.1 | 930.2 | 921.3
14290 kPa | 949.2 | 940.5 | 931.6 | 922.8
16310 kPa | 950.5 | 941.9 | 933 | 924.3
18340 kPa | 951.7 | 943.2 | 934.4 | 925.7
20370 kPa | 953 | 944.5 | 935.8 | 927.2
22390 kPa | 954.2 | 945.8 | 937.1 | 928.6
24420 kPa | 955.4 | 947 | 938.5 | 930
26450 kPa | 956.6 | 948.3 | 939.8 | 931.4
28470 kPa | 957.7 | 949.5 | 941.1 | 932.7
29490 kPa | 958.3 | 950.1 | 941.7 | 933.4
30500 kPa | 958.9 | 950.8 | 942.4 | 934.1
32520 kPa | 960.1 | 952 | 943.7 | 935.4
34550 kPa | 961.2 | 953.2 | 944.9 | 936.8
36580 kPa | 962.4 | 954.3 | 946.1 | 938
38600 kPa | 963.5 | 955.5 | 947.3 | 939.3
39620 kPa | 964 | 956.1 | 947.9 | 940

Cc1cccnc1 [3-methylpyridine]
mass density [kg/m3]
Settings | 298.15 K | 308.15 K | 318.15 K | 328.15 K
2130 kPa | 953.2 | 944.3 | 935.3 | 926.3
4150 kPa | 954.5 | 945.7 | 936.7 | 927.8
6180 kPa | 955.8 | 947.1 | 938.1 | 929.2
8210 kPa | 957.1 | 948.4 | 939.4 | 930.7
10230 kPa | 958.4 | 949.7 | 940.9 | 932.2
11250 kPa | 959 | 950.4 | 941.6 | 932.9
12260 kPa | 959.6 | 951 | 942.3 | 933.6
14290 kPa | 960.8 | 952.3 | 943.6 | 935
16310 kPa | 962.1 | 953.6 | 944.9 | 936.4
18340 kPa | 963.3 | 954.8 | 946.2 | 937.7
20370 kPa | 964.4 | 956.1 | 947.5 | 939.1
22390 kPa | 965.6 | 957.3 | 948.8 | 940.4
24420 kPa | 966.7 | 958.5 | 950.1 | 941.7
26450 kPa | 967.9 | 959.7 | 951.3 | 943.1
28470 kPa | 969 | 960.9 | 952.6 | 944.4
29490 kPa | 969.6 | 961.5 | 953.2 | 945
30500 kPa | 970.1 | 962 | 953.8 | 945.7
32530 kPa | 971.2 | 963.2 | 955 | 946.9
34550 kPa | 972.3 | 964.3 | 956.2 | 948.2
36580 kPa | 973.4 | 965.4 | 957.4 | 949.4
38600 kPa | 974.5 | 966.5 | 958.5 | 950.6
39620 kPa | 975 | 967.1 | 959.1 | 951.2
